According to patent publication US6492416B1, “4,5-diaryl-3(2H)-furanone derivatives as cyclooxygenase-2 inhibitors” (Pacific Corporation, priority 1999, dated 2002):
Values after ≈ are worked out from the molar mass of the structure shown.

Tests used:
COX-1 = target: T1, COX-1 (Mus musculus, UniProt P22437); assay: Evaluation of COX-1 activity: PGE2 formation in mouse peritoneal macrophages without aspirin and LPS treatment; type: cell-based
T1 sequence (P22437 27-602): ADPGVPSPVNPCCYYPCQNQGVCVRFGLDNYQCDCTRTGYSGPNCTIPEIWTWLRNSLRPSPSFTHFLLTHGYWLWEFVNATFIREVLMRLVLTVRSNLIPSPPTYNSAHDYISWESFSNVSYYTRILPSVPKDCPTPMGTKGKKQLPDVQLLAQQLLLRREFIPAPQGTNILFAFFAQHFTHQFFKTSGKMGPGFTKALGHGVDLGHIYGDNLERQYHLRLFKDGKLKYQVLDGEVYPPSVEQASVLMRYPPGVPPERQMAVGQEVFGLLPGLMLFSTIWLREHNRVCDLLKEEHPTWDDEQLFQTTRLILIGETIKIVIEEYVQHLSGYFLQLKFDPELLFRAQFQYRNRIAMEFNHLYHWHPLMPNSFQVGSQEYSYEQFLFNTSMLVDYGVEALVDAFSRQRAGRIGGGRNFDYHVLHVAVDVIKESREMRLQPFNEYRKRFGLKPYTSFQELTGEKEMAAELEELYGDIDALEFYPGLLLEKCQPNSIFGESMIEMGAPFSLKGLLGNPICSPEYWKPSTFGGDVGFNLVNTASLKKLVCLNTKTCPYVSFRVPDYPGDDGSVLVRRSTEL
How it was run: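 Peritoneal macrophages from C57BL/6 mice, without aspirin or LPS treatment, were plated at 1×10^6 cells/ml and fixed 2 h at 37 °C. Cells were preincubated 10 min, then given 10 μM arachidonic acid plus compound for 10 min; PGE2 was measured by RIA or EIA. IC50 came from 4–5 concentrations.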

COX-2 = target: T2, COX-2 (Mus musculus, UniProt Q05769); assay: Evaluation of COX-2 activity: PGE2 formation in aspirin-treated, LPS-stimulated mouse peritoneal macrophages; type: cell-based
T2 sequence (Q05769 18-604): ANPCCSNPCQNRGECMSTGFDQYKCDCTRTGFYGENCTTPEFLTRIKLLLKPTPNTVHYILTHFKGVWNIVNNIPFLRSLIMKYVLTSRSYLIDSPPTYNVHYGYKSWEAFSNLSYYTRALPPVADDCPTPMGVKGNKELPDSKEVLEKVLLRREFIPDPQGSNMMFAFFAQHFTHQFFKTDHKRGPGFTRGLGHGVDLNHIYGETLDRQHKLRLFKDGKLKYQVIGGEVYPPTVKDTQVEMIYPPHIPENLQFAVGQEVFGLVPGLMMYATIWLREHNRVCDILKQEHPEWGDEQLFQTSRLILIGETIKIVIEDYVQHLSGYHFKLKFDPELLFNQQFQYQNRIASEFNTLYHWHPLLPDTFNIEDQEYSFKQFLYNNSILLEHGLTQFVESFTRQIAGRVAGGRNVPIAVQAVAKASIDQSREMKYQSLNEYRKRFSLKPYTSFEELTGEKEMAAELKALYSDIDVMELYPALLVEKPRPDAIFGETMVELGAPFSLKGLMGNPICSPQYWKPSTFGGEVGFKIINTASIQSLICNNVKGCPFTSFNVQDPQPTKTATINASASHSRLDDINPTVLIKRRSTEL
How it was run: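 PGE2 output, quantified by radio- or enzyme-immunoassay, was read after 10 min exposure of cells to compound with 10 μM arachidonic acid. Cells were mouse peritoneal macrophages, COX-1 knocked out with 500 μM aspirin and COX-2 induced by 10 μg/ml LPS over 16 h. IC50 derived from 4–5 concentrations.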

| IC50, μg/ml COX-1 (COX-1) [µg/mL] | melting point [°C] | IC50, μg/ml COX-2 (COX-2) [µg/mL] | Structure (SMILES) |
| --- | --- | --- | --- |
| 20 (≈ 55.5 µM) | 190 to 191 | 0.03 (≈ 0.0832 µM) | CC1(C)OC(c2ccc(S(C)(=O)=O)c(F)c2)=C(c2ccccc2)C1=O [Example 273] |
| 200 (≈ 529 µM) | 182 to 183 | 0.03 (≈ 0.0793 µM) | CC1(C)OC(c2ccc(S(C)(=O)=O)c(F)c2)=C(c2cccc(F)c2)C1=O [Example 275] |
| 10 (≈ 25.2 µM) | 183 to 184 | 0.1 (≈ 0.252 µM) | CC1(C)OC(c2ccc(S(C)(=O)=O)c(F)c2)=C(c2ccc(F)cc2F)C1=O [Example 281] |
| 30 (≈ 75.7 µM) | 140 to 141 | 0.03 (≈ 0.0757 µM) | CC1(C)OC(c2ccc(S(C)(=O)=O)c(F)c2)=C(c2cc(F)ccc2F)C1=O [Example 282] |
| 90 (≈ 227 µM) | 113 to 115 | 0.7 (≈ 1.77 µM) | CC1(C)OC(c2ccc(S(C)(=O)=O)c(F)c2)=C(c2c(F)cccc2F)C1=O [Example 283] |
| 200 (≈ 505 µM) | 163 to 164 | 0.03 (≈ 0.0757 µM) | CC1(C)OC(c2ccc(S(C)(=O)=O)c(F)c2)=C(c2cc(F)cc(F)c2)C1=O [Example 285] |
| 5 (≈ 11.7 µM) | 134 to 135 | 0.03 (≈ 0.07 µM) | CC1(C)OC(c2ccc(S(C)(=O)=O)c(F)c2)=C(c2ccc(C(F)(F)F)cc2)C1=O [Example 286] |
| 10 (≈ 26.4 µM) | 157 to 158 | 0.03 (≈ 0.0793 µM) | CC1(C)OC(c2ccc(S(C)(=O)=O)cc2F)=C(c2cccc(F)c2)C1=O [Example 323] |
| 3 (≈ 7.93 µM) | 150 to 152 | 0.03 (≈ 0.0793 µM) | CC1(C)OC(c2ccc(S(C)(=O)=O)cc2F)=C(c2ccc(F)cc2)C1=O [Example 324] |
| 200 (≈ 505 µM) | 150 to 151 | 0.05 (≈ 0.126 µM) | CC1(C)OC(c2ccc(S(C)(=O)=O)cc2F)=C(c2cc(F)ccc2F)C1=O [Example 325] |

More lines, now with the values behind:

| Structure (SMILES) | IC50, μg/ml COX-1 (COX-1) [µg/mL] | melting point [°C] | IC50, μg/ml COX-2 (COX-2) [µg/mL] |
| --- | --- | --- | --- |
| C[S+]([O-])c1ccc(C2=C(c3ccccc3)C(=O)C(C)(C)O2)cc1F (stereo not drawn) [Example 291, 2,2-dimethyl-5-{3-fluoro-4-(methylsulfinyl)phenyl}-4-phenyl-3(2H)-furanone] | 3 (≈ 8.71 µM) | 149 to 150 | 0.2 (≈ 0.581 µM) |
| CC1(C)OC(c2ccc(S(N)(=O)=O)c(F)c2)=C(c2ccccc2Cl)C1=O [Example 304] | 50 (≈ 126 µM) | 122 to 123 | 0.05 (≈ 0.126 µM) |
| CC1(C)OC(c2ccc(S(N)(=O)=O)c(F)c2)=C(c2cccc(Cl)c2)C1=O [Example 305] | 0.3 (≈ 0.758 µM) | 164 to 165 | 0.003 (≈ 0.00758 µM) |
| CC1(C)OC(c2ccc(S(C)(=O)=O)cc2F)=C(c2ccccc2)C1=O [Example 321] | 20 (≈ 55.5 µM) | 175 to 176 | 0.03 (≈ 0.0832 µM) |
| CC1(C)OC(c2ccc(S(C)(=O)=O)cc2F)=C(c2cccc(Cl)c2)C1=O [Example 322] | 3 (≈ 7.6 µM) | 139 to 140 | 0.02 (≈ 0.0507 µM) |
| CC1(C)OC(c2ccc(S(C)(=O)=O)cc2F)=C(c2cc(F)cc(F)c2)C1=O [Example 326] | 20 (≈ 50.5 µM) | 118 to 119 | 0.03 (≈ 0.0757 µM) |
| CC1(C)OC(c2ccc(S(N)(=O)=O)cc2F)=C(c2ccccc2)C1=O [Example 332, 5-{4-(Aminosulfonyl)-2-fluorophenyl}-2,2-dimethyl-4-phenyl-3(2H)-furanone] | 5 (≈ 13.8 µM) | 79 to 81 | 0.03 (≈ 0.083 µM) |
| CSc1ccc(C2=C(c3cc(F)cc(F)c3)C(=O)C(C)(C)O2)cc1Br [Example 340] | 30 (≈ 70.5 µM) | 115 to 116 | 10 (≈ 23.5 µM) |
